Results from patent US20140378463A1, “IP receptor agonist heterocyclic compounds” (NOVARTIS AG, priority 2012, published 2014).

These molecules were tested against T1, IP receptor (Homo sapiens, UniProt P43119) (assay: cAMP accumulation in CHO cells stably expressing the IP receptor (CHO-IP), PerkinElmer AlphaScreen assay). Details: 1 hour at room temperature, 4-parameter logistic fit.
T1 construct: expressed in transfected cells; host or cells: CHO cells stably expressing the IP receptor (CHO-IP)
Type: cell-based
Procedure: Activity of compounds at the IP receptor (IP receptor) is assessed by measuring cAMP accumulation in CHO cells stably expressing the IP receptor (CHO-IP) using the PerkinElmer AlphaScreen assay. This technology measures the endogenous production of cAMP, in a non-radioactive luminescence proximity homogenous assay. A biological reaction occurs between streptavidin coated donor beads, biotinylated cAMP and anti-cAMP acceptor beads, bringing the donor and acceptor beads close enough together so that upon excitation a fluorescence signal is produced. On production of endogenous cAMP, competition between the biotinylated cAMP and cellular-derived cAMP causes a reduction in the fluorescent signal. The reduction in signal is proportional to the amount of cAMP being produced, thus it is possible to quantify the amount of cAMP being produced on stimulation with agonist.
Test and reference compounds are prepared at 100×[final] in 100% DMSO, and diluted 1:3 using a Biomek Fx (Beckman Coulter). This is followed by an intermediate dilution to give 5×[final] in assay buffer (HBSS containing 5 mM HEPES, 0.1% (w/v) BSA). 5 μL of 5×[final] test compounds, reference compounds and buffer/DMSO control are then transferred to a 384-well white OptiPlate, containing 20 μL CHO-IP cell suspension (15,000 cells/well, prepared from frozen), and plate is incubated at room temperature for 1 hour. A cAMP standard curve is constructed for each experiment (concentration range of 10000 nM to 0.001 nM, in assay buffer) and 25 μL of each concentration added to the last two columns of the assay plate. The incubation is terminated by the addition of lysis buffer (dH2O; 0.3% (v v^−1) Tween-20) containing 20 units mL^−1 streptavidin coated donor beads and biotinylated cAMP (pre-incubated for 30 minutes) and 20 units mL^−1 anti-cAMP acceptor beads, which are added to the lysis buffer just before addition to the assay plate. The assay plate is then incubated at room temperature in the dark, for 60 minutes with gentle shaking, and read on the Envision plate reader (Perkin Elmer).
The raw data of the reference compounds, test compounds and controls are converted into cAMP concentrations, using the cAMP standard curve, in GraphPadPrism (Graph Pad Software Inc). EC50 as well as maximal values of the agonist curves are determined using a 4-parameter logistic equation. The % maximum response values of all test compounds are determined using the top of the treprostinil concentration-response curve.

T1 sequence (P43119 whole entry): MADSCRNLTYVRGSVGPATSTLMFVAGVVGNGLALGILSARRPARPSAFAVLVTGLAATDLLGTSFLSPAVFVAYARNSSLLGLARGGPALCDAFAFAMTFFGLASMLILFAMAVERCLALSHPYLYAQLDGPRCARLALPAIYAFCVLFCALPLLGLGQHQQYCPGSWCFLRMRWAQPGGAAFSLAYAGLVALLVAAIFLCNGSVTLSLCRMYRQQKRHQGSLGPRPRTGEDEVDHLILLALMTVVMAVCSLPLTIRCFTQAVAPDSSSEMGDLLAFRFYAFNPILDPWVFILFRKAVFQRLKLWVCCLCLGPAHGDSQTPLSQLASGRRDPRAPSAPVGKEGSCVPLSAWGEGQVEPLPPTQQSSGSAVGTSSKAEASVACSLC

Compound | EC50 [nM]
CC1c2nc(-c3ccccc3)c(-c3ccccc3)nc2CCN1CCCCCCC(=O)O (racemic) [Example 1, rac-7-(5-methyl-2,3-diphenyl-7,8-dihydropyrido[3,4-b]pyrazin-6(5H)-yl)heptanoic acid] | 275
Cc1ccc(-c2nc3c(nc2-c2ccc(C)cc2)C(CCCCCC(=O)O)NCC3)cc1 (racemic) [Example 2, rac-6-(2,3-Dip-tolyl-5,6,7,8-tetrahydropyrido[3,4-b]pyrazin-5-yl)hexanoic acid] | 5
Cc1ccc(-c2nc3c(nc2-c2ccc(C)cc2)C(CCCCCCC(=O)O)NCC3)cc1 (racemic) [Example 2.1, rac-7-(2,3-Dip-tolyl-5,6,7,8-tetrahydropyrido[3,4-b]pyrazin-5-yl)heptanoic acid] | 5.4
Cc1ccc(-c2nc3c(nc2-c2ccc(C)cc2)C(CCCCCC(=O)O)N(C)CC3)cc1 (racemic) [Example 3.1, rac-6-(6-Methyl-2,3-dip-tolyl-5,6,7,8-tetrahydropyrido[3,4-b]pyrazin-5-yl)hexanoic acid] | 25.9
CC1c2nc(-c3ccccc3)c(-c3ccccc3)nc2CCN1CCCCCCC(=O)O (single isomer, unassigned) [Example 1(i), (R)-7-(5-methyl-2,3-diphenyl-7,8-dihydropyrido[3,4-b]pyrazin-6(5H)-yl)heptanoic acid or (S)-7-(5-methyl-2,3-diphenyl-7,8-dihydropyrido[3,4-b]pyrazin-6(5H)-yl)heptanoic acid] | 190
CC1c2nc(-c3ccccc3)c(-c3ccccc3)nc2CCN1CCCCCCC(=O)O (single isomer, unassigned) [Example 1(ii), (R)-7-(5-methyl-2,3-diphenyl-7,8-dihydropyrido[3,4-b]pyrazin-6(5H)-yl)heptanoic acid or (S)-7-(5-methyl-2,3-diphenyl-7,8-dihydropyrido[3,4-b]pyrazin-6(5H)-yl)heptanoic acid] | 710
Cc1ccc(-c2nc3c(nc2-c2ccc(C)cc2)C(C)N(CCCCC(=O)O)CC3)cc1 (stereo not drawn) [Example 1.1, 5-(5-Methyl-2,3-di-p-tolyl-7,8-dihydro-5H-pyrido[3,4-b]pyrazin-6-yl)-pentanoic acid] | 1.5
Cc1ccc(-c2nc3c(nc2-c2ccc(C)cc2)C(C)N(CCCCCC(=O)O)CC3)cc1 (stereo not drawn) [Example 1.2, 6-(5-Methyl-2,3-di-p-tolyl-7,8-dihydro-5H-pyrido[3,4-b]pyrazin-6-yl)-hexanoic acid] | 2
Cc1ccc(-c2nc3c(nc2-c2ccc(C)cc2)C(CCCCCCC(=O)O)N(C)CC3)cc1 (stereo not drawn) [Example 3, 7-(6-Methyl-2,3-dip-tolyl-5,6,7,8-tetrahydropyrido[3,4-b]pyrazin-5-yl)heptanoic acid] | 2.3
